Laboratory results taken from ChEMBL document CHEMBL1122531 (J Med Chem, 1984).

What was measured:
Mus musculus [1] = experiment: Compound was evaluated in vivo for its effective dose at which half of the mice were effected using Nilsen assay (NA) by administering the compound Subcutaneously; format: functional; settings: sc
Mus musculus [2] = experiment: Compound was evaluated in vivo for its effective dose at which half of the mice were effected using Nilsen assay (NA) by administering the compound perorally (po).; format: functional
Mus musculus [3] = experiment: Compound was evaluated in vivo for its effective dose at which half of the mice were effected using hotplate assay (HPA) by administering the compound perorally (po).; format: functional
Mus musculus [4] = experiment: Compound was evaluated in vivo for its effective dose at which half of the mice were effected using hotplate assay (HPA) by administering the compound subcutaneously.; format: functional; settings: sc
Mus musculus [5] = experiment: In vivo inhibition of subcutaneously administered naloxone-elicited opioid type withdrawal jumping (IWJ) after 72 hours in physically dependent male mice (strain Fullinsdorf-Albino SPF). Dose 0.005 g/uM; format: functional; settings: sc
Opioid receptor [6] = molecular target: T1, Opioid receptor (Rattus norvegicus, UniProt P33533+P34975+P33535); format: cell membranes, Brain, Membrane
Opioid receptor [7] = molecular target: T1, Opioid receptor; format: cell membranes, Brain, Membrane; remark: listed apart in the source
Oryctolagus cuniculus [8] = experiment: Compound was evaluated in vivo for the respiratory activity in four conscious rabbits. The percent change in respiration rate in comparison to the 10-minute period prior to the injection, dose 0.005 g/uM; format: functional
Oryctolagus cuniculus [9] = experiment: Compound was evaluated in vivo for the respiratory activity in four conscious rabbits. The percent change of the respiratory volume in comparison to the 10-minute prior to the injection, dose 0.005 g/uM; format: functional
Mus musculus [10] = experiment: In vivo inhibition of subcutaneously administered naloxone-elicited opioid type withdrawal jumping (IWJ) after 72 hours in physically dependent male mice (strain Fullinsdorf-Albino SPF). Dose 0.41 g/uM; format: functional; settings: sc
Oryctolagus cuniculus [11] = experiment: Compound was evaluated in vivo for the respiratory activity in four conscious rabbits. The percent change in respiration rate in comparison to the 10-minute period prior to the injection, dose 0.41 g/uM; format: functional
Oryctolagus cuniculus [12] = experiment: Compound was evaluated in vivo for the respiratory activity in four conscious rabbits. The percent change of the respiratory volume in comparison to the 10-minute prior to the injection, dose 0.41 g/uM; format: functional
Mus musculus [13] = experiment: Compound was evaluated in vivo for its effective dose at which half of the mice were effected using hotplate assay (HPA) by administering the compound perorally (po); format: functional
Mus musculus [14] = experiment: Compound was evaluated in vivo for its effective dose at which half of the mice were effected using hotplate assay (HPA) by administering the compound subcutaneously; format: functional; settings: sc
Mus musculus [15] = experiment: Compound was evaluated in vivo for its effective dose at which half of the mice were effected using Nilsen assay (NA) by administering the compound perorally (po); format: functional
Oryctolagus cuniculus [16] = experiment: Compound was evaluated in vivo for the respiratory activity in four conscious rabbits. The percent change in respiration rate in comparison to the 10-minute period prior to the injection, dose 0.08 kg/uM; format: functional
Oryctolagus cuniculus [17] = experiment: Compound was evaluated in vivo for the respiratory activity in four conscious rabbits. The percent change of the respiratory volume in comparison to the 10-minute prior to the injection, dose 0.08 kg/uM; format: functional
Mus musculus [18] = experiment: In vivo inhibition of subcutaneously administered naloxone-elicited opioid type withdrawal jumping (IWJ) after 72 hours in physically dependent male mice (strain Fullinsdorf-Albino SPF), dose 0.08 kg/uM; format: functional; settings: sc
Mus musculus [19] = experiment: In vivo inhibition of subcutaneously administered naloxone-elicited opioid type withdrawal jumping (IWJ) after 72 hours in physically dependent male mice (strain Fullinsdorf-Albino SPF), dose 0.17 kg/uM; format: functional; settings: sc
Oryctolagus cuniculus [20] = experiment: Compound was evaluated in vivo for the respiratory activity in four conscious rabbits. The percent change in respiration rate in comparison to the 10-minute period prior to the injection, dose 0.17 kg/uM; format: functional
Oryctolagus cuniculus [21] = experiment: Compound was evaluated in vivo for the respiratory activity in four conscious rabbits. The percent change of the respiratory volume in comparison to the 10-minute prior to the injection, dose 0.17 kg/uM; format: functional
Mus musculus [22] = experiment: In vivo inhibition of subcutaneously administered naloxone-elicited opioid type withdrawal jumping (IWJ) after 72 hours in physically dependent male mice (strain Fullinsdorf-Albino SPF), dose 0.017 g/uM; format: functional; settings: sc
Oryctolagus cuniculus [23] = experiment: Compound was evaluated in vivo for the respiratory activity in four conscious rabbits. The percent change in respiration rate in comparison to the 10-minute period prior to the injection, dose 0.017 g/uM; format: functional
Oryctolagus cuniculus [24] = experiment: Compound was evaluated in vivo for the respiratory activity in four conscious rabbits. The percent change of the respiratory volume in comparison to the 10-minute prior to the injection, dose 0.017 g/uM; format: functional
Mus musculus [25] = experiment: In vivo inhibition of subcutaneously administered naloxone-elicited opioid type withdrawal jumping (IWJ) after 72 hours in physically dependent male mice (strain Fullinsdorf-Albino SPF).; format: functional; settings: sc
Oryctolagus cuniculus [26] = experiment: Compound was evaluated in vivo for the respiratory activity in four conscious rabbits. The percent change in respiration rate in comparison to the 10-minute period prior to the injection, dose 0.67 kg/uM; format: functional
Oryctolagus cuniculus [27] = experiment: Compound was evaluated in vivo for the respiratory activity in four conscious rabbits. The percent change of the respiratory volume in comparison to the 10-minute prior to the injection, dose 0.67 kg/uM; format: functional
Mus musculus [28] = experiment: In vivo inhibition of subcutaneously administered naloxone-elicited opioid type withdrawal jumping (IWJ) after 72 hours in physically dependent male mice (strain Fullinsdorf-Albino SPF), dose 0.18 kg/uM; format: functional; settings: sc
Oryctolagus cuniculus [29] = experiment: Compound was evaluated in vivo for the respiratory activity in four conscious rabbits. The percent change in respiration rate in comparison to the 10-minute period prior to the injection, dose 0.18 kg/uM; format: functional
Oryctolagus cuniculus [30] = experiment: Compound was evaluated in vivo for the respiratory activity in four conscious rabbits. The percent change of the respiratory volume in comparison to the 10-minute prior to the injection, dose 0.18 kg/uM; format: functional
Oryctolagus cuniculus [31] = experiment: Compound was evaluated in vivo for the respiratory activity in four conscious rabbits. The percent change in respiration rate in comparison to the 10-minute period prior to the injection, dose 0.03 kg/uM; format: functional
Oryctolagus cuniculus [32] = experiment: Compound was evaluated in vivo for the respiratory activity in four conscious rabbits. The percent change of the respiratory volume in comparison to the 10-minute prior to the injection, dose 0.03 kg/uM; format: functional
Mus musculus [33] = species: Mus musculus; experiment: animal or person; settings: sc, 72 h

SMILES | ED50 (Mus musculus [1]) [µmol/kg] | ED50 (Mus musculus [4]) [µmol/kg] | IC50 (Opioid receptor [6]) [nM] | IC50 (Opioid receptor [7]) [nM] | ED50 (Mus musculus [13]) [µmol/kg] | ED50 (Mus musculus [14]) [µmol/kg] | ED50 (Mus musculus [15]) [µmol/kg] | other results
Br.CO[C@@]12CCC(=O)[C@@H]3Oc4c(O)ccc5c4[C@@]31CCN(C)C2C5 | 0.02 | 0.008 | 0.003 | 0.08 |  |  |  | ED50 (Mus musculus [2]): 0.5 µmol/kg; ED50 (Mus musculus [3]): 0.5 µmol/kg; ED50 (Mus musculus [5]): 0.08 µmol/kg; Change (Oryctolagus cuniculus [8]): -33%; Change (Oryctolagus cuniculus [9]): -26%
Br.CO[C@@]12CCC(=O)[C@@H]3Oc4c(OCc5ccccc5)ccc5c4[C@@]31CCN(C)C2C5 |  | 2.7 | 0.8 | 9 |  |  |  | ED50 (Mus musculus [10]): 5.3 µmol/kg; Change (Oryctolagus cuniculus [11]): -38%; Change (Oryctolagus cuniculus [12]): -32%
CN1CC[C@]23CC(=O)CC[C@@]2(O)[C@H]1Cc1cccc(O)c13 |  |  | 0.2 | 3.4 | 3.5 | 2 |  | 
COc1cccc2c1[C@]13CCN(C)[C@H](C2)[C@]1(OC)CCC(=O)C3 | 0.06 |  | 0.3 | 3.5 | 1.1 | 0.06 | 1.6 | Change (Oryctolagus cuniculus [16]): -66 µM/kg; Change (Oryctolagus cuniculus [17]): -64%; ED50 (Mus musculus [18]): 2.4 µmol/kg
COc1ccc2c(c1O)[C@]13CCN(C)[C@H](C2)[C@]1(OC)CCC(=O)C3 | 0.5 |  | 0.5 | 11 | 2.4 | 0.8 | 5.4 | 
CO[C@@]12CCC(=O)C[C@@]13CCN(C)[C@@H]2Cc1cccc(O)c13 | 0.4 |  | 0.02 | 0.7 | 1.2 | 0.5 | 1 | ED50 (Mus musculus [19]): 2.9 µmol/kg; Change (Oryctolagus cuniculus [20]): -32%; Change (Oryctolagus cuniculus [21]): -40%
COc1ccc2c(c1OC)[C@]13CCN(C)[C@H](C2)[C@]1(OC)CCC(=O)C3 | 0.05 |  | 0.085 | 0.85 | 0.3 | 0.06 | 0.6 | ED50 (Mus musculus [22]): 1.6 µmol/kg; Change (Oryctolagus cuniculus [23]): -50%; Change (Oryctolagus cuniculus [24]): -48%
COc1ccc2c(c1OC)[C@]13CCN(C)[C@H](C2)[C@]1(O)CCC(=O)C3 | 0.3 |  | 0.5 | 1.2 |  | 0.4 |  | 
CN1CC[C@]23CC(=O)CC[C@@]2(O)[C@H]1Cc1ccccc13 | 2 |  | 0.3 | 12 |  | 1.8 |  | 
CO[C@@]12CCC(=O)[C@@H]3Oc4cccc5c4[C@@]31CCN(C)[C@@H]2C5 | 0.3 | 0.3 | 0.2 | 16 |  |  |  | ED50 (Mus musculus [2]): 4.7 µmol/kg; ED50 (Mus musculus [3]): 2.8 µmol/kg; ED50 (Mus musculus [25]): 14 µmol/kg; Change (Oryctolagus cuniculus [26]): -75%; Change (Oryctolagus cuniculus [27]): -68%
CN1CC[C@]23c4c5cccc4O[C@H]2C(=O)CC[C@@]3(O)[C@H]1C5 |  | 1.6 | 1.4 | 16 |  |  |  | ED50 (Mus musculus [3]): 31 µmol/kg
COc1cccc2c1[C@]13CCN(C)[C@H](C2)[C@]1(O)CCC(=O)C3 |  |  | 0.75 | 3.7 | 5 | 0.5 |  | 
CO[C@@]12CCC(=O)C[C@@]13CCN(C)[C@@H]2Cc1ccccc13 | 0.2 |  | 0.2 | 6 | 2.2 | 0.1 | 2.3 | ED50 (Mus musculus [28]): 7 µmol/kg; Change (Oryctolagus cuniculus [29]): -52%; Change (Oryctolagus cuniculus [30]): -48%
CN1CC[C@]23c4c5ccc(O)c4O[C@H]2[C@@H](O)C=C[C@H]3[C@H]1C5.Cl [MORPHINE HYDROCHLORIDE] |  |  |  |  |  |  |  | Change (Oryctolagus cuniculus [31]): -43%; Change (Oryctolagus cuniculus [32]): 38.3%; ED50 (Mus musculus [33]): 59 µmol/kg
CN1CC[C@]23c4c5ccc(O)c4O[C@H]2C(=O)CC[C@@]3(O)[C@H]1C5 [OXYMORPHONE] |  | 0.3 |  |  |  |  |  | ED50 (Mus musculus [3]): 3 µmol/kg
